Data set [1] can be described thus: Drug excretion in monkey urine/feces treated with [14C]rivoglitazone at 1 mg/kg, po administered via gavage measured during 0 to 72 hrs by radio-HPLC analysis. On the set-up: dose 1 mg/kg, dosed compound name [14C]Rivoglitazone, route oral. Particulars: rhesus monkey, in vivo. It counts as ADME, organism-based, Macaca mulatta.
Data set [2] in a line: Drug excretion in F344/DuCrlCrlj rat feces treated with [14C]rivoglitazone at 1 mg/kg, po administered via gavage measured during 0 to 48 hrs by radio-HPLC analysis. It counts as ADME, organism-based. On the set-up: dose 1 mg/kg, dosed compound name [14C]Rivoglitazone, route oral. Particulars: in vivo.
Data set [3] relates to Rhesus monkey. The data set is described as follows: Drug level in monkey plasma treated with [14C]rivoglitazone assessed as ratio of molar basis AUC (0 to t) at 1 mg/kg, po administered via gavage by LC-MS/MS analysis. It counts as ADME, organism-based, Macaca mulatta. On the set-up: dose 1 mg/kg, dosed compound name [14C]Rivoglitazone, route oral. To be noted: in vivo.
Data set [4] can be described thus: Drug excretion in F344/DuCrlCrlj rat urine/feces treated with [14C]rivoglitazone at 1 mg/kg, po administered via gavage measured during 0 to 48 hrs by radio-HPLC analysis. It counts as ADME, organism-based. On the set-up: dose 1 mg/kg, dosed compound name [14C]Rivoglitazone, route oral. Particulars: in vivo.
Data set [5] relates to Rattus norvegicus. Put plainly: Drug level in F344/DuCrlCrlj rat plasma treated with [14C]rivoglitazone assessed as ratio of molar basis AUC (0 to t) at 1 mg/kg, po administered via gavage by LC-MS/MS analysis. It counts as ADME, organism-based. On the set-up: dose 1 mg/kg, dosed compound name [14C]Rivoglitazone, route oral. To be noted: in vivo.
Data set [6] is described as follows: Retention time of the compound by LC-MS/MS analysis. It counts as physicochemical. On the set-up: dosed compound name [14C]Rivoglitazone.
Data set [7] is described as follows: Drug excretion in monkey feces treated with [14C]rivoglitazone at 1 mg/kg, po administered via gavage measured during 0 to 72 hrs by radio-HPLC analysis. It counts as ADME, organism-based, Macaca mulatta. On the set-up: dose 1 mg/kg, dosed compound name [14C]Rivoglitazone, route oral. Particulars: rhesus monkey, in vivo.
Data set [8] is described as follows: Drug excretion in F344/DuCrlCrlj rat urine/bile treated with [14C]rivoglitazone at 1 mg/kg, po administered via gavage measured during 0 to 48 hrs by radio-HPLC analysis. It counts as ADME, organism-based. On the set-up: dose 1 mg/kg, dosed compound name [14C]Rivoglitazone, route oral. Particulars: in vivo.
Data set [9] can be described thus: Drug excretion in F344/DuCrlCrlj rat bile treated with [14C]rivoglitazone at 1 mg/kg, po administered via gavage measured during 0 to 48 hrs by radio-HPLC analysis. It counts as ADME, organism-based. On the set-up: dose 1 mg/kg, dosed compound name [14C]Rivoglitazone, route oral. Particulars: in vivo.
The nature of data set [10]: Drug excretion in F344/DuCrlCrlj rat urine treated with [14C]rivoglitazone at 1 mg/kg, po administered via gavage measured during 0 to 48 hrs by radio-HPLC analysis. It counts as ADME, organism-based. On the set-up: dose 1 mg/kg, dosed compound name [14C]Rivoglitazone, route oral. Particulars: in vivo.
The nature of data set [11]: Drug excretion in monkey urine treated with [14C]rivoglitazone at 1 mg/kg, po administered via gavage measured during 0 to 72 hrs by radio-HPLC analysis. Particulars: rhesus monkey, in vivo. On the set-up: dose 1 mg/kg, dosed compound name [14C]Rivoglitazone, route oral. It counts as ADME, organism-based, Macaca mulatta.

As for `Cn1c(COc2ccc(CC3SC(=O)NC3=O)cc2)nc2ccc(O)cc21` (configuration not stated), the Compound recovery in [1] is recorded as 18%; in data set [2] it was 25.6%; in data set [4], 25.6%; in [7] it was 18%; in data set [8], “metabolite_not_detected”. Also, the AUCmet/AUCp in data set [3] is recorded as 1.22%; in data set [5], 0.72%. Further, the Retention_time in data set [6] is 19 min.

Take `COc1ccc2nc(COc3ccc(CC(C(N)=O)S(C)(=O)=O)cc3)n(C)c2c1` (configuration not stated): the Compound recovery is on record as 1.3% in data set [1]; “metabolite_not_detected” in [2]; 1% in data set [4]; 1% in [9]; 1% in [10]; 2% in data set [8]. For the same compound, the Compound recovery in [11] was 1.3%. The AUCmet/AUCp in data set [3] worked out at 0.08%; in [5] it was 0.02%. The compound also showed a Retention_time in data set [6] of 18.1 min.

For `COc1ccc2nc(COc3ccc(CC4(O)SC(=O)NC4=O)cc3)n(C)c2c1` (configuration not stated), the values for the Compound recovery in [1], in data set [7] and in data set [11] were 2.1%, 1.7% and 0.4%, respectively. Besides, the AUCmet/AUCp in data set [3] came to 0.02%; in [5], 0.03%. Also, the Retention_time in data set [6] is 21.3 min.

With `COc1ccc2nc(COc3ccc(CC(SC)C(=O)O)cc3)n(C)c2c1` (configuration not stated), the Compound recovery in [1] was 0.8%; in data set [2] it was 3%; in data set [4], 3%; in data set [7], 0.8%; in [8] it was “metabolite_not_detected”. Further, the AUCmet/AUCp in data set [3] is listed as 0.25%; in data set [5], 0.01%. The compound further displayed a Retention_time in [6] of 24.1 min.

In the case of `COc1ccc2nc(COc3ccc(CC(SC)C(N)=O)cc3)n(C)c2c1` (configuration not stated), the AUCmet/AUCp is recorded as 0.05% in [3] and 0.01% in [5]. The compound also registered a Retention_time in data set [6] of 20.9 min.

As for `COc1ccc2nc(COc3ccc(CC(SSCC(N)C(=O)O)C(=O)O)cc3)n(C)c2c1` (configuration not stated), in data set [3], the AUCmet/AUCp worked out at 0.03%. Moreover, in data set [6], the Retention_time is recorded as 16.8 min.

Consider `Cn1c(COc2ccc(CC(C(N)=O)S(C)(=O)=O)cc2)nc2ccc(OS(=O)(=O)O)cc21` (configuration not stated), for which the values for the Compound recovery result in data set [2], in [9] and in data set [8] were “metabolite_not_detected”, 1.3% and 1.3%, respectively. This compound displayed a Retention_time in [6] of 13.8 min.

As to `Cn1c(COc2ccc(CC3SC(=O)NC3=O)cc2)nc2ccc(O[C@@H]3O[C@H](C(=O)O)[C@@H](O)[C@H](O)[C@H]3O)cc21` (some centres not stated), the Compound recovery was 2.6% in [1]; “metabolite_not_detected” in data set [2]; 1.5% in data set [9]; 1.5% in data set [8]; 2.6% in [11]. Further, the Retention_time in data set [6] was found to be 15.1 min.

In the case of `COc1ccc2nc(COc3ccc(CC(SC(=O)N[C@@H]4O[C@H](C(=O)O)[C@@H](O)[C@H](O)[C@H]4O)C(=O)O)cc3)n(C)c2c1` (some centres not stated), the Compound recovery in data set [1] and in data set [7] was 6.6% throughout. The AUCmet/AUCp in data set [3] came out at 1.53%. The same compound returned a Retention_time in [6] of 17.2 min.

For the compound `O=C1NC(=O)C(Cc2ccc(OCc3nc4ccc(O)cc4[nH]3)cc2)S1` (configuration not stated), the Compound recovery in data set [1] and in [11] was 3.8% in each case. Besides, the AUCmet/AUCp in data set [3] is given as 0.28%. Also, the Retention_time in data set [6] is 17.8 min.

For the compound `COc1ccc2nc(COc3ccc(CC4SC(=O)NC4=O)cc3)[nH]c2c1` (configuration not stated), the figures for the AUCmet/AUCp in [3] and in data set [5] were 7.01% and 0.02%, respectively. In addition, the Retention_time in [6] stood at 21.5 min.

With `COc1ccc2nc(COc3ccc(CC(C(N)=O)[S+](C)[O-])cc3)n(C)c2c1` (configuration not stated), the Compound recovery result in [2] was “metabolite_not_detected”; in data set [4] it was 3.9%; in data set [9] it was 0.6%; in data set [10], 3.9%; in data set [8], 4.5%. Moreover, the AUCmet/AUCp in data set [3] was found to be 0.11%; in [5], 0.08%. The same compound returned a Retention_time in data set [6] of 16.1 min.

Consider `COc1ccc2nc(COc3ccc(CC4SC(=O)N([C@@H]5O[C@H](C(=O)O)[C@@H](O)[C@H](O)[C@H]5O)C4=O)cc3)n(C)c2c1` (some centres not stated), for which the Compound recovery in [1] was 1.4%; in data set [2] it was “metabolite_not_detected”; in data set [9], 1%; in data set [8], 1%; in data set [11], 1.4%. Moreover, the AUCmet/AUCp in [3] is 2.15%. Also, in data set [6], the Retention_time came to 19.8 min.

With `Cn1c(COc2ccc(CC(SC(=O)N[C@@H]3O[C@H](C(=O)O)[C@@H](O)[C@H](O)[C@H]3O)C(=O)O)cc2)nc2ccc(O)cc21` (some centres not stated), the Retention_time in data set [6] is reported as 13.9 min.

Take `CSC(Cc1ccc(OCc2nc3ccc(O)cc3n2C)cc1)C(N)=O` (configuration not stated): the Compound recovery was 2.9% in [1]; 8.7% in data set [2]; 8.7% in [4]; 2.9% in data set [7]; “metabolite_not_detected” in data set [8]. For the same compound, the Retention_time in data set [6] came to 16.9 min.

With `Cn1c(COc2ccc(CC(C(N)=O)[S+](C)[O-])cc2)nc2ccc(OS(=O)(=O)O)cc21` (configuration not stated), the Compound recovery entry is reported as “metabolite_not_detected” in [2], 3.8% in data set [9] and 3.8% in data set [8]. The Retention_time in data set [6] was determined as 9.9 min.

Take `CSC(Cc1ccc(OCc2nc3ccc(O[C@@H]4O[C@H](C(=O)O)[C@@H](O)[C@H](O)[C@H]4O)cc3n2C)cc1)C(N)=O` (some centres not stated): the Compound recovery in data set [1] is recorded as 1.2%; in [2] it was “metabolite_not_detected”; in [4], 0.7%; in data set [9], 2.8%; in data set [10], 0.7%; in data set [8], 3.5%. The Compound recovery in [11] is on record as 1.2%. Also, in data set [6], the Retention_time worked out at 12.9 min.

The values are drawn from ChEMBL document CHEMBL3525983, “Pharmacokinetics, metabolism, and disposition of rivoglitazone, a novel peroxisome proliferator-activated receptor γ agonist, in rats and monkeys” (Drug Metab Dispos, 2011).
